Source: patent US8324176B2, “Pyrazole derivatives, medicinal composition containing the same, medicinal use thereof, and intermediate for production thereof” (Kissei Pharmaceutical Co., Ltd., priority 2002, dated 2012)

Legend:
[1] = system: Male ICR mice; assay: Acute toxicity test; type: in vivo; conditions: n=5, oral dose of 1 g/kg, observed for 24 hours
Protocol: Male ICR mice (CLEA Japan, Inc.; 32-37 g, n=5), aged 6 weeks old, were fasted for 4 hours.

[2] = system: diabetic rats; assay: Assay for inhibitory effects on blood glucose level increase in rats (liquid meal tolerance test); type: in vivo, rat; conditions: test compound 1 mg/kg orally, liquid meal 17.25 kcal/kg, mean±S.E.; for Plasma glucose concentration 0.5 h: 0.5 hour after the drug administration; for Plasma glucose concentration 1 h: 1 hour after the drug administration
Protocol: Assay for Inhibitory Effects on Blood Glucose Level Increase in Rats
1) Preparation of Diabetic Rat Model
Male wistar rats (Japan Charles River), aged 8 weeks old, were injected nicotinamide (230 mg/kg) intraperitoneally. Fifteen minutes after injection, they were injected streptozotocin (85 mg/kg) intravenously from tail vain under anesthesia with ether. After a week, rats were fasted overnight and then glucose tolerance test (2 g/kg) was done.
2) Liquid Meal Tolerance Test
After overnight fasted, the diabetic rats were orally administered a test compound (1 mg/kg), which was dissolved in distilled water or 0.5% aqueous carboxymethylcellulose solution, in the drug-treating group, or distilled water or 0.5% aqueous carboxymethylcellulose solution alone in a control group. Immediately after the compound administration, 17.25 kcal/kg of liquid meal (No. 038, Control diet, assorted with dextrin and maltose; Oriental Yeast Co., Ltd.) was loaded orally. The blood was collected from tail artery immediately before and after administration with the time course, and treated with heparin immediately. The blood was centrifuged, and the plasma was collected to quantify the plasma glucose concentration by glucose oxidase method. The values in the Table are presented as the mean±S.E.

[3] = biological target: T1, human SGLT1 (Homo sapiens, UniProt P13866); assay: Assay for inhibitory effects on human SGLT1 activity (uptake of methyl-α-D-glucopyranoside in CS1-5-11D cells); type: cell-based; conditions: CHO-K1 cells stably expressing human SGLT1 (CS1-5-11D); 1 mM α-MG uptake, 37° C., 1 hour
T1 construct: expressed in transfected cells
T1 sequence (P13866 1-664): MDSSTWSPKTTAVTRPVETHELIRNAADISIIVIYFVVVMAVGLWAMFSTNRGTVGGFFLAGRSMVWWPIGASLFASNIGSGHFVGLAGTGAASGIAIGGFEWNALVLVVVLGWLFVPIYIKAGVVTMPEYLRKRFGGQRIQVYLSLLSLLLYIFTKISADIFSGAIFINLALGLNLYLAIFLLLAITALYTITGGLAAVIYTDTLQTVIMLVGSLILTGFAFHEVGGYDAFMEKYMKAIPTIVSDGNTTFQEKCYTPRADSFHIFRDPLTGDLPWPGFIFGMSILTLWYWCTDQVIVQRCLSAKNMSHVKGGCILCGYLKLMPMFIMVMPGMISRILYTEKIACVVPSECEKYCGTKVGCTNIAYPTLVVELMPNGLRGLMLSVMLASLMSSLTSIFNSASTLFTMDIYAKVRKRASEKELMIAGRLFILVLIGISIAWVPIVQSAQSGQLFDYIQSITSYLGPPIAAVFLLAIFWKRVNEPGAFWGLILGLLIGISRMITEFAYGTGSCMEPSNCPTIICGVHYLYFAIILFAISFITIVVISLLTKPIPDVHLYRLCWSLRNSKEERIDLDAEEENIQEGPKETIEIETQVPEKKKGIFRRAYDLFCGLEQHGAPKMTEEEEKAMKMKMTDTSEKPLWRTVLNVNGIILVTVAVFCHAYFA
Protocol: Assay for Inhibitory Effects on Human SGLT1 Activity
1) Cloning and Construction of the Vector Expressing Human SGLT1
The cDNA library was prepared for PCR amplification by reverse transcription from total RNA deprived from human small intestine (Ori gene) using oligo-dT as a primer.
2) Establishment of Cell Line Stably Expressing Human SGLT1
The expression vector of human SGLT1 was digested by Sca I into a linear DNA. The linear DNA was transfected into CHO-K1 cells by means of lipofection (Effectene Transfection Reagent: QIAGEN). Neomycin resistant cell lines were selected by culture in the medium containing G418 (1 mg/mL, LIFE TECHNOLOGIES), and then the activity against the uptake of methyl-α-D-glucopyranoside was measured by the method described below. […] CS1-5-11D cells were cultured in the presence of G418 at 200 μg/mL.
3) Measurement of the Inhibitory Activity Against the Uptake of Methyl-α-D-glucopyranoside (α-MG)
CS1-5-11D cells were seeded into a 96-well culture plate at a density of 3×10^4 cells/well and cultured for 2 days, and were used in the uptake assay. A mixture of non-labeled (Sigma) and ^14C-labeled α-MG (Amersham Pharmcia Biotec) was added to the uptake buffer (pH 7.4: containing 140 mM sodium chloride, 2 mM potassium chloride, 1 mM calcium chloride, 1 mM magnesium chloride, 10 mM 2-[4-(2-hydroxyethyl)-1-piperazinyl]ethane sulfonic acid, and 5 mM tris(hydroxymethyl)aminomethane) at the final concentration of 1 mM. A test compound was dissolved in dimethyl sulfoxide, and then appropriately diluted with distilled water. The test compound solution was added to the uptake buffer containing 1 mM α-MG, and designated as a measurement buffer. For the control group, the measurement buffer without any test compound was prepared. For measuring the basal uptake, a basal uptake measurement buffer which contains 140 mM chorine chloride instead of sodium chloride was prepared. After removing the culture medium of CS1-5-11D cells, 180 μL of the pre-treatment buffer (the basal uptake buffer without α-MG) was added to each well and incubated at 37° C. for 10 minutes. After repeating the same treatment, the pre-treatment buffer was removed. To each well was added 75 μL of the measurement buffer or the basal uptake buffer was added and incubated at 37° C. for 1 hour. After removing the measurement buffer, cells were washed twice with 180 μL per well of the washing buffer (the basal uptake buffer containing 10 mM non-labeled α-MG). The cells were solubilized by 75 μL per well of 0.2 mol/L sodium hydroxide. The cell lysates were transferred into PicoPlates (Packard), and then added 150 μL of MicroScint-40 (Packard) and mixed. Radioactivity was measured by means of micro-scintillation counter TopCount (Packard). One hundred was set to the difference between the uptake in the control group and the basal uptake, and the uptake of methyl α-D-glucopyranoside a teach drug concentration were calculated.

| SMILES | Number of death [1] | Plasma glucose concentration 0.5 h [2] [mg/dL] | Plasma glucose concentration 1 h [2] [mg/dL] | IC50 [3] [µM] | Plasma glucose concentration 0 h ([2]; pretreatment (0 h)) [mg/dL] |
| --- | --- | --- | --- | --- | --- |
| Cc1cc(OCCCNCCC(N)=O)ccc1Cc1c(O[C@@H]2O[C@H](CO)[C@@H](O)[C@H](O)[C@H]2O)n[nH]c1C(C)C [Example 52, 4-[(4-{3-[2-(Carbamoyl)ethylamino]propoxy}-2-methylphenyl)methyl]-3-(β-D-glucopyranosyloxy)-5-isopropyl-1H-pyrazole] | 0/5 | 163 ± 5 | 176 ± 10 |  |  |
| Cc1cc(OCCNC(=N)N)ccc1Cc1c(O[C@@H]2O[C@H](CO)[C@@H](O)[C@H](O)[C@H]2O)n[nH]c1C(C)C [Example 56, 3-(β-D-Glucopyranosyloxy)-4-{[4-(2-guanidinoethoxy)-2-methylphenyl]methyl}-5-isopropyl-1H-pyrazole] |  | 146 ± 7 | 165 ± 17 | 0.038 |  |
| Cc1cc(OCCCNC(CO)CO)ccc1Cc1c(O[C@@H]2O[C@H](CO)[C@@H](O)[C@H](O)[C@H]2O)n[nH]c1C(C)C [Example 59, 3-(β-D-Glucopyranosyloxy)-4-[(4-(3-[2-hydroxy-1-(hydroxymethyl)ethylamino]propoxy)-2-methylphenyl)methyl]-5-isopropyl-1H-pyrazole] |  | 143 ± 4 | 154 ± 13 | 0.071 |  |
| CC(C)c1[nH]nc(O[C@@H]2O[C@H](CO)[C@@H](O)[C@H](O)[C@H]2O)c1Cc1ccc(OCCCNCc2cccnc2)cc1 [Example 64, 3-(β-D-Glucopyranosyloxy)-5-isopropyl-4-({4-[3-(3-pyridyl-methylamino)propoxy]phenyl}methyl)-1H-pyrazole] |  | 141 ± 12 | 148 ± 22 | 0.178 | 116 ± 2 |
